Data from PMC11070402, “New antiproliferative 3-substituted oxindoles inhibiting EGFR/VEGFR-2 and tubulin polymerization” (Molecular Diversity, 2023).
Read-outs that look alike come from different tables or passages of the source.

Tests used:
[1] = test system: NCI/ADR-RES (ovarian cancer cell line); assay: NCI one-dose assay, NCI/ADR-RES; format: cell-based; conditions: Homo sapiens; NCI/ADR-RES; 10 µM single dose, 48 h incubation; read-out: cell growth inhibition % (GI %)
Description: All novel scaffolds 6a–j were carefully selected by the National Cancer Institute (NCI), Bethesda, USA, to elucidate their cytotoxic activity versus 60 human cancer cell lines at 10 µM as a single-dose concentration after a 48 h incubation period.
National Cancer Institution selected all the synthesized 6a–j (NCI), Bethesda, USA, for in vitro one-dose antitumor assay. The methodology protocol for the NCI anticancer screening was reported in detail elsewhere (http://www.dtp.nci.nih.gov). The anticancer assay was performed in full NCI 60 cell lines extracted from nine tumor cell lines, including leukemia, melanoma, lung, colon, CNS, ovarian, renal, prostate, and breast cancer cell lines.

[2] = test system: MCF-7 cells; assay: Cell cycle analysis by DNA flow cytometry; format: cell-based, human
Description: MCF-7 Cells were placed in a six-well plate at 1 × 10^5 concentration of cells/well and then kept for incubation for 24 h. […] Cells were then collected and fixed for 12 h using ice-cold 70% ethanol at 4 °C. Ethanol was then removed, and cells were washed with cold phosphate buffer saline (PBS, 0.5 ml) and preserved for 30 min at 37 °C. The cells were stained for 30 min with propidium iodide in the dark. A flow cytometer was used to detect DNA content.

[3] = target: T1, VEGFR-2 (KDR) (Homo sapiens, UniProt P35968); assay: VEGFR-2 kinase assay kit (Kinase-Glo MAX); format: biochemical
T1 construct: purchased
Description: (§1) The receptor tyrosine kinases, namely EGFR, VEGFR-2, and PDGFR_ẞ Kinases Assay Kits, are designed to measure EGFR, VEGFR-2, and PDGFR_ẞ Kinases’ activities for screening and profiling applications using Kinase-Glo® MAX as a detection reagent. The EGFR, VEGFR-2, and PDGFR_ẞ Kinases Assay Kits come in a convenient 96-well format, with enough purified recombinant EGFR enzyme, EGFR substrate, ATP, and kinase assay buffer for 100 enzyme reactions. The master mixture (25 µl per well) was equipped out of Kinase assay buffer (6 µl), ATP (500 µM, 1 µl), PTK substrate (50x, 1 µl), and water (17 µl) and transferred into each well. […] EGFR, VEGFR-2, and PDGFR_ẞ Kinases were softened on ice. Its tube was spun briefly to recover its full content of the tube. These enzymes were diluted with 1 × Kinase assay buffer to 1 ng/ µl. The reaction was initiated by adding 20 µl of diluted EGFR, VEGFR-2, and PDGFR_ẞ enzymes to the wells designated “Positive Control” and “Test Inhibitor Control.” The plate was incubated at 30 °C for 40 min. After the 40-min reaction, the Kinase-Glo Max (50 µl) reagent was added to each well. The plate was covered with aluminum foil and incubated at room temperature for 15 min, and the luminescence was measured using the microplate reader.

[4] = target: T2, PDGFR_ẞ (Homo sapiens, UniProt P09619); assay: PDGFR_ẞ kinase assay kit (Kinase-Glo MAX); format: biochemical
T2 construct: purchased
Description: as §1

[5] = test system: Human Skin Fibroblasts (HSF) cells; assay: Margin of safety: cytotoxicity on human skin fibroblasts (SRB assay); format: cell-based; conditions: Human Skin Fibroblasts, SRB assay, 72 h exposure, read-out: HSF (IC50 ± SD)
Description: Cell viability was assessed via SRB assay. Aliquots of 100 µl cell suspension (5 × 10^3 cells) were in 96-well plates and incubated in a complete media for 24 h. […] After 72 h of drug exposure, cells were fixed by replacing media with 150 µl of 10% TCA and incubated at 4 °C for 1 h. The TCA solution was removed, and the cells were washed 5 times with distilled water. Aliquots of […] SRB solution (0.4 w/v) were added and incubated in a dark place at room temperature for 10 min. Plates were washed 3 times with 1% acetic acid and allowed to air-dry overnight. Then, 150 µl of TRIS (10 mM) was added to dissolve the protein-bound SRB stain; the absorbance was measured at 540 nm using a BMG LAB TECH®-FLUO star Omega microplate reader (Ortenberg, Germany).

T1 sequence (P35968 20-1356): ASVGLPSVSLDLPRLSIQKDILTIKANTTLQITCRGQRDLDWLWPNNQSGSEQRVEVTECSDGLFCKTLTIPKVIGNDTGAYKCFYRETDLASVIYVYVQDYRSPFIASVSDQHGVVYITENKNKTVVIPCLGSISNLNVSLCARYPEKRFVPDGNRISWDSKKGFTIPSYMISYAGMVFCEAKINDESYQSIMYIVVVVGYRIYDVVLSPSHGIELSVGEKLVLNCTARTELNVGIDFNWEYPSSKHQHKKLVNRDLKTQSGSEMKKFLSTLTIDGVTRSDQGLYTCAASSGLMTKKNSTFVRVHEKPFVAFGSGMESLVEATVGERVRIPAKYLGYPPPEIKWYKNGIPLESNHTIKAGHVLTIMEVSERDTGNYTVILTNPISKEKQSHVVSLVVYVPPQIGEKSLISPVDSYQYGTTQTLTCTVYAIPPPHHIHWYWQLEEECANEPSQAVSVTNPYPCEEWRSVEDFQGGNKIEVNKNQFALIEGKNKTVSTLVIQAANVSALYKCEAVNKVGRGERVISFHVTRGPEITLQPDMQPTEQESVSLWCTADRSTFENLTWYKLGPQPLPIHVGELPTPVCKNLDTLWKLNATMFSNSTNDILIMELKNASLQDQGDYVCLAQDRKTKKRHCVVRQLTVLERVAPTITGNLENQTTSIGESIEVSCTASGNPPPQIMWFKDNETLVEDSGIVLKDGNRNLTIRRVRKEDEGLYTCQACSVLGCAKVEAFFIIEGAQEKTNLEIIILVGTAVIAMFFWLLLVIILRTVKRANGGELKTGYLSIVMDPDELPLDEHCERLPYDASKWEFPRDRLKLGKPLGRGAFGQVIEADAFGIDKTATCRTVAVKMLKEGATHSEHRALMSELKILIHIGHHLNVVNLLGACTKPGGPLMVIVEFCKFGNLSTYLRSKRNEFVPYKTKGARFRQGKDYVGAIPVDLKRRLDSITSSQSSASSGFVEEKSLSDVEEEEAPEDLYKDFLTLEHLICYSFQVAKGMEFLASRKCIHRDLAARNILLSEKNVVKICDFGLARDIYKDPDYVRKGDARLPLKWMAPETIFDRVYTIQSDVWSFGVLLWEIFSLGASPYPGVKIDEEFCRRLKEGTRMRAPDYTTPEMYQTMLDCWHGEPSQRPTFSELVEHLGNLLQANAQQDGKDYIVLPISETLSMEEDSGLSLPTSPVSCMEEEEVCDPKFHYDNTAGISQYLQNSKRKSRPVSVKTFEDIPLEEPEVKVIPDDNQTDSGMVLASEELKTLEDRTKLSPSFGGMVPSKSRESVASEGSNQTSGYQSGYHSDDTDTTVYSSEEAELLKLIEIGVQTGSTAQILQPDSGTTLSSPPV
T2 sequence (P09619 33-1106, species assumed): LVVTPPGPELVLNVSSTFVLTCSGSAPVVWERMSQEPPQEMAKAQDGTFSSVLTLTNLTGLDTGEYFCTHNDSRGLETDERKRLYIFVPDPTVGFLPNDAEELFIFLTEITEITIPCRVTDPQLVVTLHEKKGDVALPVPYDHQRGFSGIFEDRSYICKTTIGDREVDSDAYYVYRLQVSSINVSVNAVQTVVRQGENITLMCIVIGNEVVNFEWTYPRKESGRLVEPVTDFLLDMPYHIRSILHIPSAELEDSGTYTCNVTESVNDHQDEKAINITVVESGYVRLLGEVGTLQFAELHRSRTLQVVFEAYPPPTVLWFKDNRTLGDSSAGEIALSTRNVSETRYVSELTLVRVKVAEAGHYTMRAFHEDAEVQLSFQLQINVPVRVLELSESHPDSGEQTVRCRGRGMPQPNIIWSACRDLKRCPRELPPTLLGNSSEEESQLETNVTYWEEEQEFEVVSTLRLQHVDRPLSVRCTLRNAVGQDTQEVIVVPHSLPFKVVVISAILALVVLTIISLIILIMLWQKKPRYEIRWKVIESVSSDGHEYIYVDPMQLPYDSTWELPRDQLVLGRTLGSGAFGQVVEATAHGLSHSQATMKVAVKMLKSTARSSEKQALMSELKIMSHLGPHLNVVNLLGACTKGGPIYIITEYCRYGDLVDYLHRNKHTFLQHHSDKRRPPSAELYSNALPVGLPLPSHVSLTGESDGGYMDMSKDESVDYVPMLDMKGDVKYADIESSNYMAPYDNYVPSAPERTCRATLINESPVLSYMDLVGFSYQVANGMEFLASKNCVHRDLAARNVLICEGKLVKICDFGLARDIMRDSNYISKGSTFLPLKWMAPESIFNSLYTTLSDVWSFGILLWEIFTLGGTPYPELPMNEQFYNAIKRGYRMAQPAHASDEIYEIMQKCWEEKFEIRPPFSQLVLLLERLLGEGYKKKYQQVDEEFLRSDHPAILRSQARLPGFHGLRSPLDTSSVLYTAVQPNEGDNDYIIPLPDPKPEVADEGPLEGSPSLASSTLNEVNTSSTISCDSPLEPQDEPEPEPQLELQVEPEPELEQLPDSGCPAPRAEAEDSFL

| SMILES | melting point [°C] | inhibition at 10 µM [1] [%] | cell cycle arrest phase ([2]; MCF-7 cells, flow cytometry) | Freq G1 (percentage of cells) ([2]; MCF-7 treated with IC50 of compound 6f (19.43 μM in method), 24 h, control 40.68) [%] | %inh VEGFR-2 ([3]; conc 0.01 (unit not given)) [%] | %inh VEGFR-2 ([3]; conc 0.1 (unit not given)) [%] | %inh VEGFR-2 ([3]; conc 1 (unit not given)) [%] | %inh VEGFR-2 ([3]; conc 10 (unit not given)) [%] | IC50 ([3]; read-out: VEGFR-2 inhibition (IC50 ± SD)) [µM] | %inh PDGFRβ ([4]; conc 0.01 (unit not given)) [%] | %inh PDGFRβ ([4]; conc 0.1 (unit not given)) [%] | %inh PDGFRβ ([4]; conc 1 (unit not given)) [%] | %inh PDGFRβ ([4]; conc 10 (unit not given)) [%] | IC50 ([4]; read-out: PDGFR_ẞ inhibition (IC50 ± SD)) [µM] | IC50 ([5]; Homo sapiens, HSF, 72 h) [µM] | IC50 [5] [µM] |
| --- | --- | --- | --- | --- | --- | --- | --- | --- | --- | --- | --- | --- | --- | --- | --- | --- |
| O=C1Nc2cc(Cl)ccc2C1=Cc1ccc(OCC(=O)c2ccc(Br)cc2)cc1 [Compound 6g, 6-Chloro-3-{4-[2-(4-bromophenyl)-2-oxoethoxy]benzylidene}indolin-2-one] | 249 to 251 | 52.2 | – | – | – | – | – | – | – | – | – | – | – | – | – | – |
| O=C1Nc2ccccc2C1=Cc1ccc(OCC(=O)c2ccc(Br)cc2)cc1 [Compound 6f, 3-{4-[2-(4-Bromophenyl)-2-oxoethoxy]benzylidene}indolin-2-one] | – | – | G0–G1phase | 51.30 | 12.36 | 36.13 | 73.94 | 88.74 | 5.75 ± 0.011 | 25.63 | 40.59 | 70.36 | 88.18 | 3.18 ± 0.007 | 19.4 | 19.4 ± 1.17 |
